Results published in patent publication US20110098177A1, “METHODS AND COMPOSITIONS OF PLANT MICRONUTRIENTS” (NOVUS INTERNATIONAL INC., priority 2006, published 2011).
Entries after “also recorded” stand apart in the source; their conditions may differ.

Key:
Format in all cases: in vivo
[1] = system: Aristotle bell pepper; details: in vivo
Procedure, shortened: (§1)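 Florida-47 tomato and Aristotle bell pepper transplants in 2-gal pots with low-nutrient medium (pH 5.36), drip-irrigated; products at three rates in deionized water plus non-ionic surfactant sprayed on newly matured leaves at 3 and 7 WAT. Toxicity scored at 4 WAT (0=no damage, 10=death); foliar tissue analysed at 6 WAT; marketable fruit harvested 4 times (tomato).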

[2] = system: Florida-47 tomato; details: in vivo
Procedure, shortened: as §1

[3] = system: Tygress tomato plants; experiment: Foliar nutrient concentration at 6 WAT, open-field tomato (Examples 7-10); details: in vivo
Procedure, shortened: (§2)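 Open-field Florida trial, spring 2008: transplants at 4-true-leaf stage on drip-irrigated raised beds were foliar-sprayed at 3 and 5 WAT (BIOX-CM at 4 and 5 WAT) at 60 gal/acre with non-ionic surfactant. Most recent mature leaves were sampled at 6 WAT. Tomato fruit was USDA-graded and analysed for minerals.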

[4] = system: Patriot bell pepper plants; experiment: Foliar nutrient concentration at 6 WAT, open-field bell pepper (Examples 7-10); details: in vivo
Procedure, shortened: as §2

[5] = system: Tygress tomato plants; experiment: Marketable yield, open-field tomato (Examples 7-10); details: in vivo
Procedure, shortened: as §2

[6] = system: Patriot bell pepper plants; experiment: Marketable yield, open-field bell pepper (Examples 7-10); details: in vivo
Procedure, shortened: as §2

[7] = system: Tygress tomato plants; experiment: Nutrient concentration of tomato fruits at 10 WAT, open field (Examples 7-10); details: in vivo
Procedure, shortened: as §2

[8] = system: Tygress tomato plants; experiment: Foliar nutrient concentration at 7 WAT, greenhouse tomato spring 2009 (Examples 13-15); details: 7 WAT (1 week after treatment)
Protocol: (§3) The following experiments were performed in a green house during the spring of 2009 at GCREC, Balm, University of Florida. Crop set-up, procedures and variables were as follows.
(§4) Transplants of ‘Tygress’ tomato plants were planted in 2-gallon pots filled with commercial planting medium with nutrient concentration of Fe, Zn, Mn, Cu being negligible and insufficient for crop growth. Irrigation and non-micronutrient fertilizer were provided daily through microsprinklers at recommended rates for tomato production in Florida. No pesticides were used. Treatments were as described in Tables 42, 43, and 44 below. BIOX-Cu was compared to Cu-sulfate, BIOX-EDC, and BIOX-O; and BIOX-Fe was compared to Fe-sulfate and BIOX-EDF. BIOX-MEZ is Ca-HMTBA.
(§5) Treatments were applied at 6 WAT (weeks after transplanting) using a water volume of 200 mL/plant. Deionized water was used for foliar applications. A non-ionic surfactant was added. Other nutrients were applied as appropriate under non-limiting conditions.
Foliar tissue nutrient analysis was performed at 3 WAT (i.e., 3 weeks before treatment) and 7 WAT (i.e., 1 weeks after treatment) on the non-applied newest leaves. The concentrations of N, P, K, Mg, Ca, B, Zn, Mn, Fe, and Cu in the foliar tissue were determined by a commercial laboratory. There were no significant differences between the foliar nutrient concentrations of any of the treatment groups prior to treatment.
(§6) Experimental design was a randomized complete block design with 6 replications. Data were analyzed using a general linear model, and means were separated using an LSD test at the 5% significance level.

[9] = system: Tygress tomato plants; experiment: Yields of tomato fruits, greenhouse spring 2009 (Examples 13-15); details: BIOX-Cu at 0.46 and 0.55 lb/acre; Cu-sulfate at 0.8 lb/acre; BIOX-EDC at 0.4 lb/acre
Protocol: as §3, §4, §5
Marketable fruit were collected three times during the growing season, starting at 10 WAT (4 weeks after the initial treatment). Tomato fruit was graded as marketable and non-marketable. Marketable fruit was sized as extra-large, large, and medium. Non-marketable fruit were harvested and number and weight recorded but not sized.
as §6

[10] = system: Tygress tomato plants; details: BIOX-Cu at 0.46 and 0.55 lb/acre; Cu-sulfate at 0.8 lb/acre; BIOX-EDC at 0.4 lb/acre
Protocol: as §3, §4, §5
Toxicity of the treatments was assessed by rating foliar tissue using a visual scale, where 0=no injury and 10=plant death.
as §6

Structure (SMILES): O=S(=O)([O-])[O-].[Cu+2] [BIOX-INC, copper sulfate]
- Pepper toxicity [1]: 0
- Tomato toxicity [2]: 0
- Foliar B concentration of tomato plants [3]: 40 ppm
- Foliar Ca concentration of tomato plants [3]: 2.0%
- Foliar Cu concentration of tomato plants [3]: 503 a ppm
- Foliar Fe concentration of tomato plants [3]: 71 ppm
- Foliar K concentration of tomato plants [3]: 5.3%
- Foliar Mg concentration of tomato plants [3]: 0.60%
- Foliar Mn concentration of tomato plants [3]: 208 ppm
- Foliar N concentration of tomato plants [3]: 4.7%
- Foliar P concentration of tomato plants [3]: 0.17%
- Foliar Zn concentration of tomato plants [3]: 281 ppm
- Foliar concentration of Cu of tomato plants compared to control, statement [3]: significant increase in the foliar concentration of Cu
- Foliar B concentration of bell pepper plants [4]: 39 ppm
- Foliar Ca concentration of bell pepper plants [4]: 2.0%
- Foliar Cu concentration of bell pepper plants [4]: 503 a ppm
- Foliar Fe concentration of bell pepper plants [4]: 71 ppm
- Foliar K concentration of bell pepper plants [4]: 5.3%
- Foliar Mg concentration of bell pepper plants [4]: 0.60%
- Foliar Mn concentration of bell pepper plants [4]: 208 ppm
- Foliar N concentration of bell pepper plants [4]: 4.7%
- Foliar P concentration of bell pepper plants [4]: 0.17%
- Foliar Zn concentration of bell pepper plants [4]: 281 ppm
- Foliar concentration of Cu of bell pepper plants compared to control, statement [4]: significant increase in the foliar concentration of Cu
- Marketable yield, Tomato [5]: 17.4 a ton/acre
- Tomato marketable yield compared to control, statement [5]: significantly increased tomato marketable yields relative to control; also recorded: significantly higher marketable yield of tomato fruits compared to control
- Marketable yield, Bell Pepper [6]: 7.3 ton/acre
- B concentration of tomato fruits [7]: 21 ppm
- Ca concentration of tomato fruits [7]: 0.2%
- Cu concentration of tomato fruits [7]: 22 ppm
- Fe concentration of tomato fruits [7]: 85 ppm
- K concentration of tomato fruits [7]: 8.0%
- Mg concentration of tomato fruits [7]: 0.38%
- Mn concentration of tomato fruits [7]: 42 ppm
- N concentration of tomato fruits [7]: 4.4%
- P concentration of tomato fruits [7]: 0.68%
- Zn concentration of tomato fruits [7]: 332 ppm
- Copper concentrations in tomato leaves, statement [8]: highest leaf copper concentrations
- Marketable tomato yields compared to non-treated control, statement [9]: did not alter marketable yields relative to the non-treated control
- Toxicity compared to non-treated control plants, statement [10]: increased levels of toxicity
